Tests used:
Assay type in all cases: biochemical
hCD38 = target: T1, hCD38 (Homo sapiens, UniProt P28907); assay: Base exchange reactions at neutral pH (HPLC)
T1 construct: a soluble fragment Val43-Ile300 with 6x-His tag at C terminus; 6xHis (C); purchased R&D Systems
T1 sequence (P28907 43-300): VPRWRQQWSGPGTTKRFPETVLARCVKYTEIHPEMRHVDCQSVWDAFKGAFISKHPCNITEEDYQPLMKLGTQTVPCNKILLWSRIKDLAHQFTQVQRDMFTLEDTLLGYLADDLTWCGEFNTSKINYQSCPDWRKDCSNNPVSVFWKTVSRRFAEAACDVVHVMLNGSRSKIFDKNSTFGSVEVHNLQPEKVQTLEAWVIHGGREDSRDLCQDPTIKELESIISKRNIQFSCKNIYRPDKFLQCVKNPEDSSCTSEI
Description: (§1) Multiple time stops from individual assays as above were analyzed for linearity, then extents of hydrolysis (white bars), cyclization (red bars), or base exchange (black bars) were calculated from each corresponding product as shown in Figure 1B and STAR methods. […] See also Figures S3–S5, and Table S1
(§2) hSARM1 species were routinely assayed by the NAD/NADH-Glo^TM Assay (Promega) while both Aplysia cyclase and CD38 were assayed by fluorometry using ϵNAD ([Orsomando et al., 2000]). […] Other reagents used in addition to, or in place of those above are detailed in text or in figure legends, for example metal ions, free bases, dinucleotide analogues, mononucleotides, and ribosides. Assays were all carried out at 25°C except for temperature studies. Reactions were stopped by HClO4/K2CO3 and analysed by C18-HPLC as reported ([Mori et al., 2014]). Only the acid labile NADH and NADPH were treated with 1 N NaOH and neutralized using 1:1 vol of 1.73 M KH2CO3 while the highly hydrophobic metabolites vacor, VAD, VMN and VR, were analysed by a modified C18-HPLC method ([Buonvicino et al., 2018]). Reaction products were quantified from peak areas (see Figure 2A) based on coelution with standards (except for cyclic products from NAD analogues that were not available and were attributed based on UV-spectra and retention times as predicted). Rates were calculated as follows. Hydrolysis and cyclization were measured from product generation from the respective individual dinucleotide substrate used, e.g., free and cyclic ADP-ribosyl moieties from NAD (Figure 1B). A basal value for hydrolysis/cyclization was taken as sum of these latter two products. In addition to that value, base exchange or transglycosidation was calculated from the expected dinucleotide analog formed in the presence of the corresponding free base, e.g., AcPyrAD from AcPyr and NAD.

hSARM1 full length [1] = target: T2, hSARM1 full length (Homo sapiens, UniProt Q6SZW1); assay: Base exchange reactions at neutral pH (HPLC)
T2 construct: Human recombinant SARM1 full length proteins (wild-type and E642A mutant); made in house
T2 sequence (Q6SZW1 28-724): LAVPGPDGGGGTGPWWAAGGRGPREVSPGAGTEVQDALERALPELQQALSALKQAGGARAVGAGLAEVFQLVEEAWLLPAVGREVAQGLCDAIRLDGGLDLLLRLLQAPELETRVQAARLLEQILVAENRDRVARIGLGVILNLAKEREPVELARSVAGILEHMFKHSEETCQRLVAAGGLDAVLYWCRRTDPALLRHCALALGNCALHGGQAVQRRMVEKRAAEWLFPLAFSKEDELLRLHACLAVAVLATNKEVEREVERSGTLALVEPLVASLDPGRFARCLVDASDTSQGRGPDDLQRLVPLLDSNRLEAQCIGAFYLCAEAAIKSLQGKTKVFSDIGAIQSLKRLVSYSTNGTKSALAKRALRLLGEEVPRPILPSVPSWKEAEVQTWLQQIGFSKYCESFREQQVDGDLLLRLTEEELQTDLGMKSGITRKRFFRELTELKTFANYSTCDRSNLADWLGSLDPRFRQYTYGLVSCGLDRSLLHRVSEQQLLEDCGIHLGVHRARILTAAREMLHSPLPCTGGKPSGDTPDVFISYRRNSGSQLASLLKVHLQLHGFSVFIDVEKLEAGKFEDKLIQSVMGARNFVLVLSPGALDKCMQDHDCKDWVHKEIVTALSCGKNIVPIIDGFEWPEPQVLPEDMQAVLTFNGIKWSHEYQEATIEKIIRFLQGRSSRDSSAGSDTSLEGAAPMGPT
Description: as §1, §2

hSARM1 SAM-TIR [2] = target: T3, hSARM1 SAM-TIR (Homo sapiens, UniProt Q6SZW1); assay: Base exchange reactions at neutral pH (HPLC)
T3 construct: made in house
T3 sequence (Q6SZW1 409-724): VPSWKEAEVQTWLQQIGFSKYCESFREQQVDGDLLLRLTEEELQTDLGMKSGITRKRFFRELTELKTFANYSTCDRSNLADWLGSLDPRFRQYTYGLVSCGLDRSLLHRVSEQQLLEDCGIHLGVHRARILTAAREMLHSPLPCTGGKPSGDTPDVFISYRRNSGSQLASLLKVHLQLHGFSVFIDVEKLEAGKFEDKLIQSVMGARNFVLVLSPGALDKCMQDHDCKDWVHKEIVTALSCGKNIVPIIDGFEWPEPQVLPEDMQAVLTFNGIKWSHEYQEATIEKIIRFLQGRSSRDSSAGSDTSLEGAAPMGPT
Description: as §1
(§3) Rates were calculated as follows.

[3] = target: T4, Aplysia californica ADP ribosyl cyclase (Aplysia californica, UniProt P29241); assay: Base exchange reactions at neutral pH (HPLC); design: purchased Merck A8950
T4 sequence (P29241 25-282): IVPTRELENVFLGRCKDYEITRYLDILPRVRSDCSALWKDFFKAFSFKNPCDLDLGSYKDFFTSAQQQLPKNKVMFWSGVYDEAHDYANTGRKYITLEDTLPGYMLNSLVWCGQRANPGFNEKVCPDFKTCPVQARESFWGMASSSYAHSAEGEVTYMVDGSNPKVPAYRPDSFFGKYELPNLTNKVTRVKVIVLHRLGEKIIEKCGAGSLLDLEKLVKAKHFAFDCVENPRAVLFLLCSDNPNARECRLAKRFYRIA
Description: as §1, §3

hSARM1 full length [4] = target: T2, hSARM1 full length; assay: NADase inhibition by pyridine ribosides (HPLC); conditions: for IC50: hSARM1 full length, saturating NAD ([…]), preliminary; for NADase inhibition (in words): hSARM1, riboside fixed at 200 μM, NAD […]
Description: as §2, with “NAD. The measured level of overall formed products matched in all cases the dinucleotide substrate consumed and the corresponding pyridine base released, according to the reaction scheme (Figure 1B). Furthermore, enzyme amounts forming 1 μmol/min of overall products above were referred to as single units (U) of activity and initial rates were always considered, for example until a maximum of 20% of the original substrate had been consumed and all products were still accumulating at a nearly linear rate.” for “NAD.”
(§4) Inhibition by ribosides was assayed by HPLC initially at fixed 200 μM of each NR, NaR or VR and optimized NAD concentrations for the different enzymes (see Figure 6 legend).

hSARM1 SAM-TIR [5] = target: T3, hSARM1 SAM-TIR; assay: NADase inhibition by pyridine ribosides, IC50 and inhibition kinetics (HPLC); conditions: for IC50: NAD […], preliminary; for Ki: variable NAD 15-600 μM
Description: as §2, §4

[6] = NAD […] alone or + AcPyr 2 mM / Vacor 0.5 mM / Na 2 mM
[7] = NADP […] alone or + AcPyr 2 mM / Vacor 0.5 mM / Na 2 mM
[8] = hSARM1 full length +NMN 0.2 mM, NAD […]
[9] = hSARM1 full length +NMN 0.2 mM, NADP […]
[10] = hSARM1 full length +VMN 0.05 mM, NAD […]
[11] = hSARM1 full length +VMN 0.05 mM, NADP […]

O=C(O)c1cccnc1 [Na, nicotinic acid]
rate (hCD38; [6]): 7934 ±1182 mU/mg | rate (hCD38; [7]): 3189 ±622 mU/mg | base exchange, share of products (hSARM1 full length [1]; [8]): 1.58% | cyclization, share of products (hSARM1 full length [1]; [8]): 8.35% | hydrolysis, share of products (hSARM1 full length [1]; [8]): 90.07% | rate (hSARM1 full length [1]; hSARM1 full length +NMN 0.2 mM, NAD […] alone or + free base): 201.5 ±27.9 mU/mg | rate (relative fold) (hSARM1 full length [1]; hSARM1 full length +NMN 0.2 mM, NAD […], relative to NAD alone without trigger): 9.23 ±1.28 fold | base exchange, share of products (hSARM1 full length [1]; [9]): 1.48% | cyclization, share of products (hSARM1 full length [1]; [9]): ~ 0.05% | hydrolysis, share of products (hSARM1 full length [1]; [9]): 98.47% | rate (hSARM1 full length [1]; hSARM1 full length +NMN 0.2 mM, NADP […] alone or + free base): 131.9 ±10.5 mU/mg | rate (relative fold) (hSARM1 full length [1]; hSARM1 full length +NMN 0.2 mM, NADP […], relative to NADP alone without trigger): 8.98 ±0.711 fold | base exchange, share of products (hSARM1 full length [1]; [10]): 1.68% | cyclization, share of products (hSARM1 full length [1]; [10]): 6.44% | hydrolysis, share of products (hSARM1 full length [1]; [10]): 91.88% | rate (hSARM1 full length [1]; hSARM1 full length +VMN 0.05 mM, NAD […] alone or + free base): 199.0 ±17.6 mU/mg | rate (relative fold) (hSARM1 full length [1]; hSARM1 full length +VMN 0.05 mM, NAD […], relative to NAD alone without trigger): 9.12 ±0.805 fold | base exchange, share of products (hSARM1 full length [1]; [11]): 1.28% | cyclization, share of products (hSARM1 full length [1]; [11]): 0.69% | hydrolysis, share of products (hSARM1 full length [1]; [11]): 98.03% | rate (hSARM1 full length [1]; hSARM1 full length +VMN 0.05 mM, NADP […] alone or + free base): 147.6 ±4.76 mU/mg | rate (relative fold) (hSARM1 full length [1]; hSARM1 full length +VMN 0.05 mM, NADP […], relative to NADP alone without trigger): 10.04 ±0.324 fold | rate (hSARM1 full length [1]; hSARM1 full length, no trigger, NAD […] alone or + AcPyr 2 mM / Vacor 0.5 mM / Na 2 mM, pH 7.5): 23.3 ±0.83 mU/mg | rate (hSARM1 full length [1]; hSARM1 full length, no trigger, NADP […] alone or + AcPyr 2 mM / Vacor 0.5 mM / Na 2 mM, pH 7.5): 17.3 ±0.54 mU/mg | base exchange products VAD(P) or NaAD(P), share of total products (hSARM1 full length [1]; hSARM1 full length, NAD or NADP 250 μM, vacor 0.5 mM, Na 2 mM): 2%–3% | rate (hSARM1 SAM-TIR [2]; [6]): 315.2 ±69.6 mU/mg | rate (hSARM1 SAM-TIR [2]; [7]): 242.0 ±37.3 mU/mg | rate [3, 6]: 14595 ±3147 mU/mg | rate [3, 7]: 9872 ±1846 mU/mg

O=C([O-])c1ccc[n+]([C@@H]2O[C@H](CO)[C@@H](O)[C@H]2O)c1 [NaR, nicotinic acid riboside]
IC50 (hSARM1 full length [4]): 87 µM | inhibition type (hSARM1 SAM-TIR [5]): mixed-type inhibition | IC50 (hSARM1 SAM-TIR [5]): 36 µM | Ki (hSARM1 SAM-TIR [5]): 15 µM

O=C(NCc1ccc[n+]([C@@H]2O[C@H](CO)[C@@H](O)[C@H]2O)c1)Nc1ccc([N+](=O)[O-])cc1 [VR, vacor riboside]
NADase inhibition (in words) (hSARM1 full length [4]): strongly inhibited | IC50 (hSARM1 full length [4]): 154 µM | inhibition type (hSARM1 SAM-TIR [5]): mixed-type inhibition | IC50 (hSARM1 SAM-TIR [5]): 61 µM | Ki (hSARM1 SAM-TIR [5]): 25.9 µM

NC(=O)c1ccc[n+]([C@@H]2O[C@H](CO)[C@@H](O)[C@H]2O)c1 [NR, nicotinamide riboside]
NADase inhibition (in words) (hSARM1 full length [4]): inactive
